Patent publication US12521393B2, “Cytotoxicity targeting chimeras for CCR2-expressing cells” (GLAXOSMITHKLINE INTELLECTUAL PROPERTY DEVELOPMENT LIMITED, priority 2021, dated 2026)
Structures can show the parent of a compound that is named as a salt.

System: endogenous target monocytes in human PBMC
Assay: PBMC ex vivo monocyte depletion flow cytometry assay (Example 200)
Format: cell-based
Details: with anti-cotinine antibody (SEQ ID NO: 11/12), 18-24 hours, EC50 in molar, read-out: Ex Vivo Depletion Assay pEC50 (converted)
Method: A human PBMC (peripheral blood mononuclear cells) monocyte depletion flow cytometry assay was developed to screen compounds in a 384-well plate format. This assay incorporated endogenous natural killer cells to deplete endogenous target monocytes.
To screen compounds in the human PBMC monocyte depletion flow cytometry assay, 11-point dose-response curves were made from 1 mM stocks in neat DMSO by serially diluting an ARM compound of Formula (I) four-fold into a 384-well plate row-wise. These serially diluted compounds were then stamped into a flat bottom polypropylene 384-well plate (Greiner Bio-One) at 100 nL/well. Fifty microliters of 30 μg/mL anti-cotinine antibody having a heavy chain sequence of SEQ ID NO: 11 and a light chain sequence of SEQ ID NO: 12 (rabbit variable region with human IgG1 Fc domain containing a DE mutation (S239D/1332E)) that had been diluted in assay medium (RPMI 1640 (Gibco) containing 10% fetal bovine serum (Gibco), 1% Glutamax (Gibco) and 1% sodium pyruvate (Corning) was added to the wells of the plate. The plate was centrifuged for 1 min at 500 rpm (revolutions per minute) and then shaken for 5 min at room temperature. The plate was incubated for 15 minutes at 37° C./5% CO2.
Frozen PBMC cells (HemaCare BioResearch) were thawed and centrifuged at 1,200 rpm for 4 minutes. The cells were diluted to a cell density of 2×10^6 cells/mL in assay medium. Fifty microliters of the diluted cells were added to the wells of the plate. The plate was centrifuged for 1 min at 500 rpm and incubated for 18-24 hours at 37° C./5% CO2.
After 18-24 hours incubation, 2 μL of 6.25 μg human FC block (BD Pharmingen) that was diluted in assay medium was added to the wells of the plate. The plate was centrifuged for 1 minute at 500 rpm and then incubated at room temperature for 15 minutes. Five microliters of 750 nM Helix NP NIR (Biolegend) that had been diluted in assay medium was added to the wells of the plate. Nine microliters of antibody cocktail containing 1/5 diluted fluorescein isothiocyanate (FITC) labeled anti-CD45 antibody (Beckman Coulter), PC7 labeled anti-CD14 antibody (Beckman Coulter) and phyocoerythrin (PE) anti-CD4 antibody (Beckman Coulter) was then added to the wells of the plate. The plate was centrifuged for 1 min at 500 rpm and incubated for 30 minutes at 4-8° C. Samples from the plate were run on BD FACS Canto II flow cytometer and data was analyzed using FlowJo software.
ARMs compounds of Formula (I) of the invention were tested for the ability to deplete monocytes in the above assay in one or more experimental runs and the results are shown in Table 3 below. Potency of the compounds of the invention is reported as a pEC50 value. The pEC50 value is the negative log of the EC50 value, wherein the EC50 value is the half maximal effective concentration measured in molar (M). For compounds tested in more than one experimental run, the pEC50 value is reported as an average or as the individual values measured

Question: For `CC(C)N(C)[C@@H]1CC[C@H](N2CC[C@H](Nc3ncnc4ccc(C(F)(F)F)cc34)C2=O)[C@H](NC(=O)[C@H]2C[C@H](NC(=O)CCO[C@H]3CC[C@@H](OCCNC(=O)[C@H]4CC(=O)N(C)[C@@H]4c4cccnc4)CC3)C2)C1` [Example 116, (2S,3S)-N-(2-(((1S,4R)-4-(3-(((1R,3R)-3-(((1R,2S,5R)-5-(Isopropyl(methyl)amino)-2-((S)-2-oxo-3-((6-(trifluoromethyl)quinazolin-4-yl)amino)pyrrolidin-1-yl)cyclohexyl)carbamoyl)cyclobutyl)amino)-3-oxopropoxy)cyclohexyl)oxy)ethyl)-1-methyl-5-oxo-2-(pyridin-3-yl)pyrrolidine-3-carboxamide], which EC50 is on record?
Answer: 0.0398 nM

Question: With `CC(C)N(C)[C@@H]1CC[C@H](N2CC[C@H](Nc3ncnc4ccc(C(F)(F)F)cc34)C2=O)[C@H](NC(=O)c2ccc([C@H]3CC[C@@H](C(=O)NCCOCCOCCNC(=O)[C@H]4CC(=O)N(C)[C@@H]4c4cccnc4)CC3)cc2)C1` [Example 133, (2S,3S)-N-(2-(2-(2-((1S,4s)-4-(4-(((1R,2S,5R)-5-(Isopropyl(methyl)amino)-2-((S)-2-oxo-3-((6-(trifluoromethyl)quinazolin-4-yl)amino)pyrrolidin-1-yl)cyclohexyl)carbamoyl)phenyl)cyclohexane-1-carboxamido)ethoxy)ethoxy)ethyl)-1-methyl-5-oxo-2-(pyridin-3-yl)pyrrolidine-3-carboxamide] as the molecule, how does the EC50 read?
Answer: 1.26 nM

Question: How did the EC50 turn out when `CC(C)N(C)[C@@H]1CC[C@H](N2CC[C@H](Nc3ncnc4ccc(C(F)(F)F)cc34)C2=O)[C@H](NC(=O)c2cccc(NCCOCCOCCOCCOCCOCCNC(=O)[C@H]3CC(=O)N(C)[C@@H]3c3cccnc3)n2)C1` [Example 124, N-((1R,2S,5R)-5-(Isopropyl(methyl)amino)-2-((S)-2-oxo-3-((6-(trifluoromethyl)quinazolin-4-yl)amino)pyrrolidin-1-yl)cyclohexyl)-6-((1-((2S,3S)-1-methyl-5-oxo-2-(pyridin-3-yl)pyrrolidin-3-yl)-1-oxo-5,8, 11, 14, 17-pentaoxa-2-azanonadecan-19-yl)amino)picolinamide] was run?
Answer: 100000 nM

Question: With `CC(C)N(C)[C@@H]1CC[C@H](N2CC[C@H](Nc3ncnc4ccc(C(F)(F)F)cc34)C2=O)[C@H](NC(=O)c2ccc(OC3CCN(CCOCCOCCNC(=O)[C@H]4CC(=O)N(C)[C@@H]4c4cccnc4)CC3)cc2)C1` [Example 91] as the molecule, how does the EC50 read?
Answer: 0.794 nM

Question: Which EC50 does the source give for `CC(C)N(C)[C@@H]1CC[C@H](N2CC[C@H](Nc3ncnc4ccc(C(F)(F)F)cc34)C2=O)[C@H](NC(=O)[C@H]2CC[C@@H](N3CCC(C(=O)NCCOCCOCCNC(=O)[C@H]4CC(=O)N(C)[C@@H]4c4cccnc4)CC3)CC2)C1` [Example 134, 1-((1S,4s)-4-(((1R,2S,5R)-5-(Isopropyl(methyl)amino)-2-((S)-2-oxo-3-((6-(trifluoromethyl)quinazolin-4-yl)amino)pyrrolidin-1-yl)cyclohexyl)carbamoyl)cyclohexyl)-N-(2-(2-(2-((2S,3S)-1-methyl-5-oxo-2-(pyridin-3-yl)pyrrolidine-3-carboxamido)ethoxy)ethoxy)ethyl)piperidine-4-carboxamide, 3Formic acid salt] here?
Answer: 0.126 nM

Question: `CC(C)N(C)[C@@H]1CC[C@H](N2CC[C@H](Nc3ncnc4ccc(C(F)(F)F)cc34)C2=O)[C@H](NC(=O)[C@H]2CC[C@H](C3CCN(CCOCCOCCNC(=O)[C@H]4CC(=O)N(C)[C@@H]4c4cccnc4)CC3)CC2)C1` [Example 189, (2S,3S)-N-(2-(2-(2-(4-((1R,4r)-4-(((1R,2S,5R)-5-(Isopropyl(methyl)amino)-2-((S)-2-oxo-3-((6-(trifluoromethyl)quinazolin-4-yl)amino)pyrrolidin-1-yl)cyclohexyl)carbamoyl)cyclohexyl)piperidin-1-yl)ethoxy)ethoxy)ethyl)-1-methyl-5-oxo-2-(pyridin-3-yl)pyrrolidine-3-carboxamide] was tested. Which EC50 did it give?
Answer: 7.94 nM

Question: For `CC(C)N(C)[C@@H]1CC[C@H](N2CC[C@H](Nc3ncnc4ccc(C(F)(F)F)cc34)C2=O)[C@H](NC(=O)CCCCCCCCNCCCCCCCCCCNC(=O)[C@H]2CC(=O)N(C)[C@@H]2c2cccnc2)C1` [Example 196, (2S,3S)-N-(10-((9-(((1R,2S,5R)-5-(Isopropyl(methyl)amino)-2-((S)-2-oxo-3-((6-(trifluoromethyl)quinazolin-4-yl)amino)pyrrolidin-1-yl)cyclohexyl)amino)-9-oxononyl)amino)decyl)-1-methyl-5-oxo-2-(pyridin-3-yl)pyrrolidine-3-carboxamide, 3Formic acid salt.], which EC50 is on record?
Answer: 0.2 nM

Question: With `CC(C)N(C)[C@@H]1CC[C@H](N2CC[C@H](Nc3ncnc4ccc(C(F)(F)F)cc34)C2=O)[C@H](NC(=O)c2ccnc(NCCOCCOCCOCCOCCNC(=O)[C@H]3CC(=O)N(C)[C@@H]3c3cccnc3)c2)C1` [Example 126, N-((1R,2S,5R)-5-(Isopropyl(methyl)amino)-2-((S)-2-oxo-3-((6-(trifluoromethyl)quinazolin-4-yl)amino)pyrrolidin-1-yl)cyclohexyl)-2-((1-((2S,3S)-1-methyl-5-oxo-2-(pyridin-3-yl)pyrrolidin-3-yl)-1-oxo-5,8,11,14-tetraoxa-2-azahexadecan-16-yl)amino)isonicotinamide, 3Trifluoroacetic acid salt] as the molecule, how does the EC50 read?
Answer: 2.51 nM

Question: For `CC(C)N(C)[C@@H]1CC[C@H](N2CC[C@H](Nc3ncnc4ccc(C(F)(F)F)cc34)C2=O)[C@H](NC(=O)[C@H]2CC[C@@H](NC(=O)CCOCCOCCNC(=O)CCCNC(=O)[C@H]3CC(=O)N(C)[C@@H]3c3cccnc3)CC2)C1` [Example 176, (2S,3S)-N-(4-((2-(2-(3-(((1S,4s)-4-(((1R,2S,5R)-5-(Isopropyl(methyl)amino)-2-((S)-2-oxo-3-((6-(trifluoromethyl)quinazolin-4-yl)amino)pyrrolidin-1-yl)cyclohexyl)carbamoyl)cyclohexyl)amino)-3-oxopropoxy)ethoxy)ethyl)amino)-4-oxobutyl)-1-methyl-5-oxo-2-(pyridin-3-yl)pyrrolidine-3-carboxamide], which EC50 is on record?
Answer: 0.316 nM

Question: For `CN1C(=O)C[C@H](C(=O)NCCOCC(=O)NCCOCCC(=O)NCCOCCC(=O)N[C@@H]2C[C@H](NC(C)(C)C)CC[C@@H]2N2CC[C@H](Nc3ncnc4ccc(C(F)(F)F)cc34)C2=O)[C@H]1c1cccnc1` [Example 106, (2S,3S)-N-(19-(((1R,2S,5R)-5-(tert-Butylamino)-2-((S)-2-oxo-3-((6-(trifluoromethyl)quinazolin-4-yl)amino)pyrrolidin-1-yl)cyclohexyl)amino)-5,12,19-trioxo-3,9, 16-trioxa-6, 13-diazanonadecyl)-1-methyl-5-oxo-2-(pyridin-3-yl)pyrrolidine-3-carboxamide], which EC50 is on record?
Answer: 0.794 nM

Question: How did the EC50 turn out when `CC(C)N(C)[C@@H]1CC[C@H](N2CC[C@H](Nc3ncnc4ccc(C(F)(F)F)cc34)C2=O)[C@H](NC(=O)c2ccc(NCCOCCOCCOCCOCCNC(=O)[C@H]3CC(=O)N(C)[C@@H]3c3cccnc3)nn2)C1` [Example 125, N-((1R,2S,5R)-5-(Isopropyl(methyl)amino)-2-((S)-2-oxo-3-((6-(trifluoromethyl)quinazolin-4-yl)amino)pyrrolidin-1-yl)cyclohexyl)-6-((1-((2S,3S)-1-methyl-5-oxo-2-(pyridin-3-yl)pyrrolidin-3-yl)-1-oxo-5,8,11,14-tetraoxa-2-azahexadecan-16-yl)amino) pyridazine-3-carboxamide] was run?
Answer: 15.8 nM

Question: `CC(C)N(C)[C@@H]1CC[C@H](N2CC[C@H](Nc3ncnc4ccc(C(F)(F)F)cc34)C2=O)[C@H](NC(=O)[C@H]2CC[C@H](c3ccc(C(=O)NCCOCCOCCNC(=O)[C@H]4CC(=O)N(C)[C@@H]4c4cccnc4)nc3)CC2)C1` [Example 141, 5-((1R,4r)-4-(((1R,2S,5R)-5-(Isopropyl(methyl)amino)-2-((S)-2-oxo-3-((6-(trifluoromethyl)qinazolin-4-yl)amino)pyrrolidin-1-yl)cyclohexyl)carbamoyl)cyclohexyl)-N-(2-(2-(2-((2S,3S)-1-methyl-5-oxo-2-(pyridin-3-yl)pyrrolidine-3-carboxamido)ethoxy)ethoxy)ethyl)picolinamide] was tested. Which EC50 did it give?
Answer: 6.31 nM
